# Experimental data from ChEMBL document CHEMBL4673351, “3α-Angeloyloxy-ent-kaur-16-en-19-oic Acid Isolated from Wedelia trilobata L. Alleviates Xylene-Induced Mouse Ear Edema and Inhibits NF-κB and MAPK Pathway in LPS-Stimulated Macrophages” (J Nat Prod, 2020).
# Active and inactive are the calls of the source. The rule behind the calls is not given here.
# Legend:
# RAW264.7 [1] = assay: Inhibition of LPS-induced iNOS protein expression in mouse RAW264.7 cells up to 30 uM after 24 hrs by Western blot analysis; format: functional, cell-based; details: dose microM <=30, time 24.0 hrs
# RAW264.7 [2] = assay: Inhibition of LPS-induced COX-2 mRNA expression in mouse RAW264.7 cells after 24 hrs by qRT-PCR analysis; format: functional, cell-based
# RAW264.7 [3] = assay: Inhibition of LPS-induced iNOS mRNA expression in mouse RAW264.7 cells after 24 hrs by qRT-PCR analysis; format: functional, cell-based
# [4] = (§1) Inhibition of NF-kappaB activation in mouse RaW264.7 cells assessed as reduction in LPS-induced PGE2 production after 24 hrs by ELISA; format: cell-based; details: RAW264.7, 24 h
# RAW264.7 [5] = assay: as §1; format: cell-based
# [6] = (§2) Inhibition of NF-kappaB activation in mouse RaW264.7 cells assessed as reduction in LPS-induced NO production after 24 hrs by Griess reagent based assay; format: cell-based; details: RAW264.7, 24 h
# RAW264.7 [7] = assay: as §2; format: cell-based
# RAW264.7 [8] = assay: Cytotoxicity against mouse RAW264.7 cells assessed as reduction in cell viability up to 60 uM after 24 hrs in presence of LPS by MTT assay; format: cell-based; details: raw264.7, 24 h
# RAW264.7 [9] = assay: Cytotoxicity against mouse RAW264.7 cells assessed as reduction in cell viability up to 80 uM after 24 hrs by MTT assay; format: cell-based; details: raw264.7, 24 h
# Mus musculus [10] = assay: Antiinflammatory activity in Kunming mouse assessed as reduction in xylene-induced cell infiltration in ear at 50 mg/kg administered topically pretreated for 30 mins followed by xylene-treatment and measured after 30 mins by H and E staining based microscopic method; format: functional, organism-based; details: time 60.0 min
# Mus musculus [11] = assay: Antiinflammatory activity in Kunming mouse assessed as reduction in xylene-induced vasodilation in ear at 50 mg/kg administered topically pretreated for 30 mins followed by xylene-treatment and measured after 30 mins by H and E staining based microscopic method; format: functional, organism-based; details: time 60.0 min
# Mus musculus [12] = assay: Antiinflammatory activity in Kunming mouse assessed as reduction in xylene-induced ear edema at 50 mg/kg administered topically pretreated for 30 mins followed by xylene-treatment and measured after 30 mins relative to control; format: functional; design: scale not given: the % may be the effect or the level left; details: time 60 min, 1 h
# Mus musculus [13] = assay: Antiinflammatory activity in Kunming mouse assessed as reduction in xylene-induced ear edema at 25 mg/kg administered topically pretreated for 30 mins followed by xylene-treatment and measured after 30 mins relative to control; format: functional; design: scale not given: the % may be the effect or the level left; details: time 60 min, 1 h
# RAW264.7 [14] = assay: Inhibition of NF-kappaB p65 nuclear translocation in LPS-induced mouse RaW264.7 cells at 20 uM after 24 hrs by DAPI staining based Immunofluorescence assay
# RAW264.7 [15] = assay: Inhibition of NF-kappaB activation in mouse RaW264.7 cells assessed as reduction in LPS-induced TNF-alpha protein expression up to 30 uM after 24 hrs by Western blot analysis; format: cell-based; details: dose microM <=30, time 24.0 hrs
# RAW264.7 [16] = assay: Inhibition of NF-kappaB activation in mouse RaW264.7 cells assessed as reduction in LPS-induced IL-6 protein expression up to 30 uM after 24 hrs by Western blot analysis; format: cell-based; details: dose microM <=30, time 24.0 hrs
# RAW264.7 [17] = assay: Inhibition of NF-kappaB activation in mouse RaW264.7 cells assessed as reduction in LPS-induced TNFalpha mRNA expression after 24 hrs by qRT-PCR analysis; format: cell-based
# RAW264.7 [18] = assay: Inhibition of NF-kappaB activation in mouse RaW264.7 cells assessed as reduction in LPS-induced IL-6 mRNA expression after 24 hrs by qRT-PCR analysis; format: cell-based
# RAW264.7 [19] = assay: Inhibition of LPS-induced COX-2 protein expression in mouse RAW264.7 cells up to 30 uM after 24 hrs by Western blot analysis; format: functional, cell-based; details: dose microM <=30, time 24.0 hrs
# RAW264.7 [20] = assay: Inhibition of LPS-induced ROS generation in mouse RAW264.7 cells up to 40 uM after 24 hrs by DCFH-DA staining based fluorescence assay; format: functional, cell-based; details: dose microM <=40, time 24.0 hrs
# RAW264.7 [21] = assay: Inhibition of JNK phosphorylation in LPS-induced mouse RaW264.7 cells up to 30 uM after 24 hrs by Western blot analysis; details: dose microM <=30, time 24.0 hrs
# [22] = biological target: MAP kinase p38 (Mus musculus) (UniProt P47811+O08911+Q9WUI1+Q9Z1B7); assay: Inhibition of p38 phosphorylation in LPS-induced mouse RaW264.7 cells up to 30 uM after 24 hrs by Western blot analysis; details: dose microM <=30, time 24.0 hrs
# RAW264.7 [23] = assay: Inhibition of ERK phosphorylation in LPS-induced mouse RaW264.7 cells up to 30 uM after 24 hrs by Western blot analysis; details: dose microM <=30, time 24.0 hrs
# RAW264.7 [24] = assay: Inhibition of NF-kappaB in mouse RaW264.7 cells assessed as reduction in LPS-induced IkappaBalpha degradation up to 30 uM after 24 hrs by Western blot analysis; format: cell-based; details: dose microM <=30, time 24.0 hrs
# RAW264.7 [25] = assay: Inhibition of NF-kappaB phosphorylation in LPS-induced mouse RaW264.7 cells up to 30 uM after 24 hrs by Western blot analysis; details: dose microM <=30, time 24.0 hrs
# RAW264.7 [26] = assay: Inhibition of IKKalpha/beta phosphorylation in LPS-induced mouse RaW264.7 cells up to 30 uM after 24 hrs by Western blot analysis; details: dose microM <=30, time 24.0 hrs
# RAW264.7 [27] = assay: Inhibition of LPS-induced mitochondrial membrane potential loss in mouse RAW264.7 cells at 20 uM after 24 hrs by JC-1 staining based fluorescence microscopic method; format: functional, cell-based
# Mus musculus [28] = assay: Antiinflammatory activity in Kunming mouse assessed as reduction in xylene-induced cell infiltration in ear at 5 mg/kg administered topically pretreated for 30 mins followed by xylene-treatment and measured after 30 mins by H and E staining based microscopic method; format: functional, organism-based; details: time 60.0 min
# Mus musculus [29] = assay: Antiinflammatory activity in Kunming mouse assessed as reduction in xylene-induced vasodilation in ear at 5 mg/kg administered topically pretreated for 30 mins followed by xylene-treatment and measured after 30 mins by H and E staining based microscopic method; format: functional, organism-based; details: time 60.0 min
# Mus musculus [30] = assay: Antiinflammatory activity in Kunming mouse assessed as reduction in xylene-induced ear edema at 5 mg/kg administered topically pretreated for 30 mins followed by xylene-treatment and measured after 30 mins relative to control; format: functional; design: scale not given: the % may be the effect or the level left; details: time 60 min, 1 h
smiles,measurement,setting,value
C=C1C[C@@]23CC[C@H]4[C@@](C)(CC[C@@H](OC(=O)/C(C)=C\C)[C@@]4(C)C(=O)O)[C@@H]2CC[C@@H]1C3,inhibition,RAW264.7 [1],Active
same,inhibition,RAW264.7 [2],Dose-dependent effect
same,inhibition,RAW264.7 [3],Dose-dependent effect
same,IC50,[4],20.3 µM
same,inhibition,RAW264.7 [5],Dose-dependent effect
same,IC50,[6],20.3 µM
same,inhibition,RAW264.7 [7],Dose-dependent effect
same,Activity,RAW264.7 [8],Non-Toxic
same,Activity,RAW264.7 [9],Non-Toxic
same,Activity,Mus musculus [10],Active
same,Activity,Mus musculus [11],Active
same,Activity,Mus musculus [12],51.57%
same,Activity,Mus musculus [13],42.44%
same,inhibition,RAW264.7 [14],Active
same,inhibition,RAW264.7 [15],Active
same,inhibition,RAW264.7 [16],Active
same,inhibition,RAW264.7 [17],Dose-dependent effect
same,inhibition,RAW264.7 [18],Dose-dependent effect
same,inhibition,RAW264.7 [19],Active
same,inhibition,RAW264.7 [20],Active
same,inhibition,RAW264.7 [21],Active
same,inhibition,[22],Active
same,inhibition,RAW264.7 [23],Active
same,inhibition,RAW264.7 [24],Active
same,inhibition,RAW264.7 [25],Active
same,inhibition,RAW264.7 [26],Active
same,inhibition,RAW264.7 [27],Active
C[C@]12CCC(=O)C=C1CC[C@@H]1[C@@H]2[C@@H](O)C[C@@]2(C)[C@H]1CC[C@]2(O)C(=O)CO [HYDROCORTISONE],Activity,Mus musculus [28],Active
same,Activity,Mus musculus [29],Active
same,Activity,Mus musculus [30],55.53%
C=C1C[C@@]23CC[C@H]4[C@@](C)(CCC[C@@]4(C)C(=O)O)[C@@H]2CC[C@@H]1C3 [KAURENOIC ACID],IC50,[6],50 µM
